According to patent US20070099877A1, “N-aryl-thienopyrimidin-4-amines and analogs as activators of caspases and inducers of apoptosis and the use thereof” (Cytovia, Inc., priority 2005, published 2007):
Structures can show the parent of a compound that is named as a salt. Where two headings read alike, the source gives them in different places.

Legend:
Type in all cases: cell-based
[1] = system: human colon carcinoma cell line HCT116; assay: Caspase cascade activation in HCT116 cells; settings: Homo sapiens, HCT-116, 48 h, read-out: Caspase activation Potency EC50 HCT116 (48 h)
Description: (§1) Human breast cancer cell line T-47D, human lung cancer cell line H1299, human hepatocellular carcinoma cell line SNU398, human colon carcinoma cell line HCT116 were grown according to media component mixtures designated by American Type Culture Collection+10% FCS (Invitrogen Corporation), in a 5% CO2-95% humidity incubator at 37° C. T-47D and H1299 cells were maintained at a cell density between 50 and 80% confluency at a cell density of 0.1 to 0.6×10^6 cells/mL. Cells were harvested at 600×g and resuspended at 0.65×10^6 cells/mL into appropriate media+10% FCS. An aliquot of 22.5 μL of cells was added to a well of a 384-well microtiter plate containing 2.5 μL of a 10% DMSO in RPMI-1640 media solution containing 0.16 to 100 μM of N-(2,5-dimethoxyphenyl)-2-methylthieno[3,2-d]pyrimidin-4-amine or other test compound (0.016 to 10 μM final). An aliquot of 22.5 μL of cells was added to a well of a 384-well microtiter plate containing 2.5 μL of a 10% DMSO in RPMI-1640 media solution without test compound as the control sample. The samples were mixed by agitation and then incubated at 37° C. for 24 h or 48 h in a 5% CO2-95% humidity incubator. After incubation, the samples were removed from the incubator and 25 μL of a solution containing 14 μM of N-(Ac-DEVD)-N′-ethoxycarbonyl-R110 (SEQ ID NO.:1) fluorogenic substrate (Cytovia, Inc.; WO99/18856), 20% sucrose (Sigma), 20 mM DTT (Sigma), 200 mM NaCl (Sigma), 40 mM Na PIPES buffer pH 7.2 (Sigma), and 500 μg/mL lysolecithin (Calbiochem) was added. The samples were mixed by agitation and incubated at room temperature. Using a fluorescent plate reader (Model SPECTRAfluor Plus, Tecan), an initial reading (T=0) was made approximately 1-2 min after addition of the substrate solution, employing excitation at 485 nm and emission at 530 nm, to determine the background fluorescence of the control sample. After the 3 h incubation, the samples were read for fluorescence as above (T=3 h).
(§2) The Relative Fluorescence Unit values (RFU) were used to calculate the sample readings as follows: RFU(T=3h)−Control RFU(T=O)=Net RFU(T=3h)
(§3) The activity of caspase cascade activation was determined by the ratio of the net RFU value for N-(2,5-dimethoxyphenyl)-2-methylthieno[3,2-d]pyrimidin-4-amine or other test compound to that of control samples. The EC50 (nM) was determined by a sigmoidal dose-response calculation (Prism 3.0, GraphPad Software Inc.).

[2] = system: human lung cancer cell line H1299; assay: Caspase cascade activation in H1299 cells; settings: NCI-H1299, 24 h, read-out: Caspase activation Potency EC50 H1299 (24 h)
Description: as §1, §2, §3

[3] = system: human hepatocellular carcinoma cell line SNU398; assay: Caspase cascade activation in SNU398 cells; settings: Homo sapiens, SNU-398, 48 h, read-out: Caspase activation Potency EC50 SNU398 (48 h)
Description: as §1, §2, §3

[4] = system: human breast cancer cell line T-47D; assay: Caspase cascade activation (DEVD-R110 fluorogenic substrate) in T-47D cells; settings: Homo sapiens, T47D
Description: as §1, §2, §3

[5] = 24 h, T47D cells, 24 h, read-out: Caspase activation Potency EC50 T47D (24 h)
[6] = 48 h, T-47D cells, 48 h, read-out: Caspase activation Potency EC50 T-47D (48 h)

Row | Compound | EC50 [1] [µM] | EC50 [2] [µM] | EC50 [3] [µM] | EC50 [4, 5] [µM] | EC50 [4, 6] [µM]
1 | COc1ccc(Nc2ncnc3scc(C)c23)cc1 [Example 23, N-(4-Methoxyphenyl)-5-methylthieno[2,3-d]pyrimidin-4-amine] | > 10 | > 10 | > 10 | > 10 | > 10
2 | Brc1cccc(Nc2ncnc3ccsc23)c1 [Example 25, N-(3-Bromophenyl)thieno[3,2-d]pyrimidin-4-amine hydrochloride] | > 10 | 5.44 | > 10 | 5.57 | > 10
3 | COc1ccc(Nc2nc(C)nc3scc(C)c23)cc1 [Example 13, N-(4-Methoxyphenyl)-2,5-dimethylthieno[2,3-d]pyrimidin-4-amine hydrochloride] | > 10 | > 10 | > 10 | > 10 | > 10
4 | COc1ccc(OC)c(Nc2nc(SC)nc3ccsc23)c1 [Example 27, N-(2,5-Dimethoxyphenyl)-2-(methylthio)thieno[3,2-d]pyrimidin-4-amine] | 0.319 | 0.041 | 0.206 | 0.02 | 0.036
5 | COc1cccc(Nc2ncnc3ccsc23)c1OC [Example 9, N-(2,3-Dimethoxyphenyl)thieno[3,2-d]pyrimidin-4-amine hydrochloride] | > 10 | > 10 | > 10 | > 10 | > 10
6 | COc1ccc(OC)c(Nc2ncnc3c(C)c(I)sc23)c1 [Example 18, 6-Iodo-N-(2,5-dimethoxyphenyl)-7-methylthieno[3,2-d]pyrimidin-4-amine hydrochloride] | > 10 | 2.79 | > 10 | 0.071 | 0.171
7 | COc1ccc(Cl)cc1Nc1ncnc2ccsc12 [Example 39, N-(5-Chloro-2-methoxyphenyl)thieno[3,2-d]pyrimidin-4-amine] | > 10 | > 10 | > 10 | > 10 | 6.9
8 | COc1ccc(OC)c(Nc2ncnc3sc(C)c(C)c23)c1 [Example 34, N-(2,5-Dimethoxyphenyl)-5,6-dimethylthieno[2,3-d]pyrimidin-4-amine] | > 10 | > 10 | > 10 | > 10 | > 10
9 | COc1ccc(OC)c(Nc2nc(C)nc3sccc23)c1 [Example 3, N-(2,5-Dimethoxyphenyl)-2-methylthieno[2,3-d]pyrimidin-4-amine] | 5.55 | 5 | 4.66 | 0.121 | 0.311
10 | COc1cccc(Nc2ncnc3ccsc23)c1 [Example 11, N-(3-Methoxyphenyl)thieno[3,2-d]pyrimidin-4-amine hydrochloride] | > 10 | 5.37 | 5.73 | 0.555 | 1.19
11 | COc1ccc(Nc2ncnc3ccsc23)cc1OC [Example 14, N-(3,4-Dimethoxyphenyl)thieno[3,2-d]pyrimidin-4-amine hydrochloride] | > 10 | > 10 | > 10 | 1.81 | 2.02
12 | COc1ccc(OC)c(Nc2ncnc3sc(-c4ccccc4)c(C)c23)c1 [Example 16, N-(2,5-Dimethoxyphenyl)-5-methyl-6-phenylthieno[2,3-d]pyrimidin-4-amine hydrochloride] | > 10 | > 10 | > 10 | > 10 | > 10
13 | COc1ccc(OC)c(Nc2ncnc3sc(C)cc23)c1 [Example 28, N-(2,5-Dimethoxyphenyl)-6-methylthieno[2,3-d]pyrimidin-4-amine hydrochloride] | > 10 | > 10 | > 10 | 0.422 | 0.542
14 | COc1ccc([N+](=O)[O-])c(Nc2ncnc3ccsc23)c1 [Example 35, N-(5-Methoxy-2-nitrophenyl)thieno[3,2-d]pyrimidin-4-amine] | > 10 | > 10 | > 10 | > 10 | > 10
15 | COc1ccc(OC)c(Nc2ncnc3cc(-c4ccccc4)sc23)c1 [Example 32, N-(2,5-Dimethoxyphenyl)-6-phenylthieno[3,2-d]pyrimidin-4-amine] | 4.25 | 1.42 | 1.6 | 2.07 | 4.01
16 | COc1ccc(C(C)(C)C)cc1Nc1ncnc2ccsc12 [Example 40, N-(5-tert-Butyl-2-methoxyphenyl)thieno[3,2-d]pyrimidin-4-amine] | > 10 | 5.49 | 4.85 | 5.24 | 2.14
17 | c1nc(Nc2ccc3[nH]ccc3c2)c2sccc2n1 [Example 24, N-(1H-Indol-5-yl)thieno[3,2-d]pyrimidin-4-amine] | > 10 | > 10 | > 10 | > 10 | > 10
18 | COc1ccc(OC)c(Nc2nc(-c3ccccc3)nc3ccsc23)c1 [Example 26, N-(2,5-Dimethoxyphenyl)-2-phenylthieno[3,2-d]pyrimidin-4-amine] | > 10 | 5.04 | > 10 | 0.476 | 0.496
19 | COc1ccc(OC)c(Nc2ncnc3c(C)csc23)c1 [Example 22, N-(2,5-Dimethoxyphenyl)-7-methylthieno[3,2-d]pyrimidin-4-amine] | 0.341 | 5.03 | > 10 | 0.114 | 0.233
20 | COc1ccc(N)cc1Nc1ncnc2ccsc12 [Example 72, N-(5-Amino-2-methoxyphenyl)thieno[3,2-d]pyrimidin-4-amine] | > 10 | > 10 | > 10 | > 10 | > 10
21 | COc1ccc(OC)c(Nc2ncnc3cc(I)sc23)c1 [Example 17, 6-Iodo-N-(2,5-dimethoxyphenyl)thieno[3,2-d]pyrimidin-4-amine hydrochloride] | 0.346 | 0.299 | 0.534 | 0.036 | 0.105
22 | COc1cccc(C)c1Nc1ncnc2ccsc12 [Example 30, N-(2-Methoxy-6-methylphenyl)thieno[3,2-d]pyrimidin-4-amine] | > 10 | 5.11 | > 10 | > 10 | > 10
23 | COc1ccc(C)cc1Nc1ncnc2ccsc12 [Example 31, N-(2-Methoxy-5-methylphenyl)thieno[3,2-d]pyrimidin-4-amine] | > 10 | > 10 | > 10 | 0.417 | 0.519
24 | COc1ccc(O)c(Nc2ncnc3ccsc23)c1 [Example 42, N-(2-Hydroxy-5-methoxyphenyl)thieno[3,2-d]pyrimidin-4-amine] | > 10 | > 10 | > 10 | > 10 | > 10
25 | COc1cccc(OC)c1Nc1ncnc2ccsc12 [Example 62, N-(2,6-Dimethoxyphenyl)thieno[3,2-d]pyrimidin-4-amine] | > 10 | > 10 | > 10 | > 10 | > 10
26 | Cc1cc(Nc2ncnc3ccsc23)no1 [Example 21, N-(5-Methylisoxazol-3-yl)thieno[3,2-d]pyrimidin-4-amine hydrochloride] | > 10 | > 10 | > 10 | > 10 | > 10
27 | COc1ccc(OC)c(Nc2ncnc3cc(Br)sc23)c1 [Example 20, 6-Bromo-N-(2,5-dimethoxyphenyl)thieno[3,2-d]pyrimidin-4-amine] | 0.341 | 0.114 | 0.431 | 0.016 | 0.037
